Reference: patent US11850253B2, “Two component compositions” (Asamedic AS, priority 2017, dated 2023)

Test: Dissolution of ASA together with sodium carbonate (one component) in 15 ml pure water in two-component device
Format: physicochemical
Method: In the following example ASA and the disodium salt of carbonic acid (Na2CO3) are dissolved at the same time in 15 ml pure water.
300 mg ASA and 258-263 mg sodium carbonate (Na2CO3) were placed together in the powder compartment of the test device used in example 1, and 15 ml of pure water was filled into the container (bottle) of said device. After releasing the ASA and sodium carbonate into the water, the solution was shaken until all ASA was dissolved.

- pH of the solutions after dissolution of ASA and the carbonate salt (300 mg ASA and 258-263 mg Na2CO3, 15 ml pure water): 9.41-9.43
- Time before ASA was dissolved (300 mg ASA and 258-263 mg Na2CO3 together as powder, 15 ml pure water): approx. 120 sec.
Compound: CC(=O)Oc1ccccc1C(=O)O [ASA, acetylsalicylic acid]
